“And” between values parts separate entries of the source, which are not always exact repeats. Equal entries are not always repeated.

The target in one data set is α-amylase. Description: In vitro α-amylase inhibitory assay. As to conditions: mean of three replicates ±SD. It counts as biochemical. Here is the method:
The reaction mixture contains 20 μL of α-amylase solution (0.5 mg mL^−1) and 200 μL of sodium phosphate buffer (pH 6.9, 0.02 M). Test samples ([…]) were added (250 μL) to the reaction mixture following which; incubation was carried out for 10 min at room temperature. This was accompanied by the addition of 200 μL of 1% starch solution, and further incubated for 10 min at 25 °C. By adding 400 μL of dinitrosalicylic acid (DNS) reagent, the reaction was terminated. Lastly, it was incubated in water (70 °C, 5 min). The absorbance was recorded using an ELISA microplate reader at 540 nm. […] All the experiments were performed in triplicates. It was the reaction mixture without the test sample that served as the control for the test.[31]
The percent inhibition was calculated as:% Inhibition = [(C − T)/C] × 100C – absorbance of control, T – absorbance of sample.

The target of a further data set is α-glucosidase. Description: In vitro α-glycosidase inhibitory assay. It counts as biochemical. The conditions noted are these: mean of three replicates ±SD. Here is the method:
The reaction mixture contains 50 μL of 0.1 M phosphate buffer (pH = 6.8), 10 μL of α-glucosidase enzyme and 20 μL of test samples (10–50 μg mL^−1) were taken in a 96-well plate and incubated at 37 °C for 15 min. Furthermore, 20 μL of p-nitrophenyl D-glucopyranoside solution was added as a substrate and incubated for an additional 20 min at 37 °C. 50 μL of 0.1 M Na2CO3 is added to terminate the reaction. The liberated p-nitrophenol was measured at 405 nm with an Elisa microplate reader. […] All the experiments were performed in triplicates.[31]
The inhibition was calculated in percentage as:% Inhibition = [(C − T)/C] × 100C – absorbance of control, T – absorbance of sample.

The test system of another data set is Drosophila melanogaster. Description: In vivo antihyperglycemic test in Drosophila on high sugar diet. The conditions noted are these: for significance of antihyperglycemic activity: Drosophila on HSD, 18 μg g^−1 feed; for reduction in glucose levels, female flies / percent reduction in glucose levels, male flies: HSD with 18 μg g^−1 feed, 10 days. Here is the method:
In this study, Oregon-R flies were obtained directly from the Nitte University, Drosophila Lab, Mangalore, India, and maintained on a wheat cream-agar medium with a relative humidity of 65–70%, and a light–dark cycle of twelve hours each. Separation of males and females of one-day-old flies were cultured in, food containing high sugar diet (HSD), and different groups of food containing HSD with uniform concentrations (18 μg g^−1 feed) of the compounds 5a, 5b, 5j for 10 days. Acarbose was administered as a positive control. Twenty flies were taken and they were homogenized in 0.2 mL of ice-cold phosphate buffer saline. (pH 7.4). Homogenized samples were centrifuged at 10 000g for 15 min at 4 °C. All fly homogenates were tested for glucose concentration using the manufacturer's protocol (Agape Diagnostics Ltd, India). Throughout the experiments, the control group was maintained in the same conditions as that of other groups except for HSD and compounds. All experiments were carried out in triplicates and the results were expressed in percentages respective to the control group.[32]
The results of all the experiments (n = 3) were analyzed and expressed as mean ± standard deviation (SD). The Student's t-test was performed using GraphPad Prism software (GraphPad Software Inc., CA, USA). p values ≤ 0.05 were considered as statistically significant (*p ≤ 0.05; *p ≤ 0.01; **p ≤ 0.001).

The next data set deals with NIH/3T3 cells. Description: MTT cytotoxicity assay. The format is cell-based. The conditions noted are these: 100 μmol, 24 h incubation. Here is the method: The cytotoxic concentration of synthetic compounds (5a–5j) was evaluated by MTT assay. A standard MTT assay was performed with various concentrations of synthesized compounds against NIH/3T3 cells using a 96-well microplate reader at 570 nm. The cell lines were cultured in DMEM, supplemented with 10% FBS in flasks, and incubated at 37 °C with 5% CO2 in DMEM medium with streptomycin and penicillin (100 IU mL^−1) at the appropriate concentrations. The 96-well plates with media were incubated. After overnight incubation, each plate was discarded and fresh medium was added to each well with varying concentrations (5 μM, 10 μM, 25 μM, 50 μM, 100 μM) of test samples. Then, 200 μL of MTT (0.5 mg mL^−1) were put in each well and further incubated for four hours. Afterward, DMSO (100 μL) was transferred into each microplate well. The absorbance was measured at 570 nm to determine how much MTT was reduced to formazan in the cells.
For orientation: Tetrazolium assays rely on reduction of a dye to a coloured formazan, in cell work by metabolically active cells.

On to `O=C1CSC(=O)N1Cc1nnc(-c2ccc(O)cc2O)o1` [Compound 5j, 3-((5-(2,4-Dihydroxyphenyl)-1,3,4-oxadiazol-2-yl)methyl)thiazolidine-2,4-dione], for which the melting point lay within 204 to 206 °C. The concentration for half-maximal inhibition (IC50) against α-amylase turned out to be 18.4 ± 0.21 µM. In addition, on α-glucosidase, it took 17.2 ± 0.22 µM to reach half-maximal inhibition (IC50). In the data set with Drosophila melanogaster, the “significance of antihyperglycemic activity” value (“significance” below) is given as “significant”. For the same compound, in the data set on Drosophila melanogaster (whole-body homogenate), the “reduction in glucose levels, female flies” value (“reduction … female flies” below) was 37% and the “percent reduction in glucose levels, male flies” value (from here on “percent reduction”) is listed as 29.05%. For the same compound, in the data set on NIH/3T3 cells, the “percentage cell toxicity (inhibition of cellular viability)” value turned out to be 83%.
As for `C[C@H]1O[C@H](O[C@H]2[C@H](O)[C@@H](O)[C@@H](O[C@H]3[C@H](O)[C@@H](O)C(O)O[C@@H]3CO)O[C@@H]2CO)[C@H](O)[C@@H](O)[C@@H]1N[C@H]1C=C(CO)[C@@H](O)[C@H](O)[C@H]1O` (stereo partly shown) [Acarbose, reference compound], the “reduction in glucose level” value with Drosophila melanogaster (HSD along with acarbose, whole-body homogenate, sex not stated) is listed as “about 62%”.
For `O=C1CSC(=O)N1Cc1nnc(-c2ccccc2)o1` [Compound 5e, 3-((5-Phenyl-1,3,4-oxadiazol-2-yl)methyl)thiazolidine-2,4-dione], the melting point is 215 to 217 °C. On α-amylase, this compound showed a 50% inhibitory concentration (IC50) of 32.4 ± 0.46 µM. On α-glucosidase, this compound gave an IC50 of 33.5 ± 0.45 µM.
With “3-((5-(4-Bromophenyl)-1,3,4-oxadiazol-2-yl)methyl)thiazolidine-2,4-dione [Compound 5b]”, the concentration for half-maximal inhibition (IC50) against α-amylase was 34.1 µM and 22.6 µM. On α-glucosidase, this compound had a 50% inhibitory concentration (IC50) of 22.25 ± 0.22 µM. In addition, in the data set with Drosophila melanogaster, the “significance” value is recorded as “significant”. Further, in the data set with Drosophila melanogaster (whole-body homogenate), the “reduction … female flies” value came to 7.03% and the “percent reduction” value was 28.4%.
Take “3-((5-(4-Aminophenyl)-1,3,4-oxadiazol-2-yl)methyl)thiazolidine-2,4-dioneone [Compound 5c]”: the 50% inhibitory concentration (IC50) was 22.6 µM and 34.1 µM against α-amylase; 27.25 ± 0.23 µM against α-glucosidase.
`O=C1CSC(=O)N1Cc1nnc(-c2ccc(Cl)cc2Cl)o1` [Compound 5a, 3-((5-(2,4-Dichlorophenyl)-1,3,4-oxadiazol-2-yl)methyl)thiazolidine-2,4-dione] showed a melting point of 210 to 212 °C. This compound registered an IC50 against α-amylase of 18.6 ± 0.22 µM. For the same compound, at α-glucosidase, the IC50 was 17.6 ± 0.19 µM. Also, the “significance” value in the data set with Drosophila melanogaster is on record as “insignificant”. In the data set with Drosophila melanogaster (whole-body homogenate), the “reduction … female flies” value turned out to be 12.1% and the “percent reduction” value is reported as 27.7%.
The compound `O=C1CSC(=O)N1Cc1nnc(-c2ccc([N+](=O)[O-])cc2)o1` [Compound 5i, 3-((5-(4-Nitrophenyl)-1,3,4-oxadiazol-2-yl)methyl)thiazolidine-2,4-dione] showed a melting point of 153 to 155 °C. For the same compound, 21.1 ± 0.23 µM corresponded to half-maximal inhibition against α-amylase (IC50). This compound also yielded an IC50 against α-glucosidase of 25.2 ± 0.28 µM.
In the same order, the values of `O=C1CSC(=O)N1Cc1nnc(-c2ccc([N+](=O)[O-])cc2Cl)o1` [Compound 5h, 3-((5-(2-Chloro-4-nitrophenyl)-1,3,4-oxadiazol-2-yl)methyl)thiazolidine-2,4-dione] are 161 to 163 °C, 23.2 ± 0.31 µM and 28.2 ± 0.31 µM.
In the same order, the values of `COc1ccc(-c2nnc(CN3C(=O)CSC3=O)o2)cc1` [Compound 5f, 3-((5-(4-Methoxyphenyl)-1,3,4-oxadiazol-2-yl)methyl)thiazolidine-2,4-dione] are 178 to 180 °C, 39.2 ± 0.52 µM and 51.3 ± 0.83 µM.
For `O=C1CSC(=O)N1Cc1nnc(-c2ccc(O)cc2)o1` [Compound 5d, 3-((5-(4-Hydroxyphenyl)-1,3,4-oxadiazol-2-yl)methyl)thiazolidine-2,4-dione], the melting point fell in the range of 192 to 194 °C. Also, half-maximal inhibition against α-amylase (IC50) required 55.4 ± 0.66 µM. This compound also displayed an IC50 against α-glucosidase of 45.3 ± 0.79 µM. Further, in the data set on NIH/3T3 cells, the “percentage cell toxicity (inhibition of cellular viability)” value is on record as 87%.
In turn, `O=C1CSC(=O)N1Cc1nnc(-c2ccc(Cl)cc2)o1` [Compound 5g, 3-((5-(4-Chlorophenyl)-1,3,4-oxadiazol-2-yl)methyl)thiazolidine-2,4-dione] showed a melting point of 172 to 174 °C. At α-amylase, this compound returned a half-maximal inhibitory concentration (IC50) of 28.9 ± 0.36 µM. On α-glucosidase, this compound showed an IC50 of 27.25 ± 0.24 µM.

Usually IC50 stands for the concentration needed to halve the response being measured. Read a high IC50 as weaker potency. By melting point is commonly meant the temperature of the solid-liquid transition.

Source of the values: publication PMC9828437, “Novel hybrids of thiazolidinedione-1,3,4-oxadiazole derivatives: synthesis, molecular docking, MD simulations, ADMET study, in vitro, and in vivo anti-diabetic assessment” (RSC Advances, 2023).
